# In US11339161B2, “Triazolo pyridines as modulators of gamma-secretase” (Boehringer Ingelheim International GmbH, priority 2017, dated 2022):
# Read-outs that look alike come from different tables or passages of the source.
# Tests used:
# [1] = target: PDGFRA (PDGFR alpha) (Homo sapiens, UniProt P16234); assay: Z'-LYTE SelectScreen biochemical kinase assay PDGFRA (PDGFR alpha)
# Source text: (§1) Thermo Fisher Scientific SelectScreen™ Biochemical Kinase Profiling Service Z′-LYTE™ Screening Protocol and Assay Conditions Assay Theory
# (§2) The […] biochemical assay employs a fluorescence-based, coupled-enzyme format and is based on the differential sensitivity of phosphorylated and non-phosphorylated peptides to proteolytic cleavage. The peptide substrate is labeled with two fluorophores—one at each end—that make up a FRET pair. In the primary reaction, the kinase transfers the gamma-phosphate of ATP to a single tyrosine, serine or threonine residue in a synthetic FRET-peptide. In the secondary reaction, a site-specific protease recognizes and cleaves non-phosphorylated FRET-peptides. Phosphorylation of FRET-peptides suppresses cleavage by the Development Reagent. Cleavage disrupts FRET between the donor (i.e., coumarin) and acceptor (i.e., fluorescein) fluorophores on the FRET-peptide, whereas uncleaved, phosphorylated FRET-peptides maintain FRET. A ratiometric method, which calculates the ratio (Emission Ratio=Coumarin emission (445 nm)/Fluorescein emission (520 nm)) of donor emission to acceptor emission after excitation of the donor fluorophore at 400 nm, is used to quantitate reaction progress, as shown in the equation below. A significant benefit of this ratiometric method for quantitating reaction progress is the elimination of well-to-well variations in FRET-peptide concentration and signal intensities. As a result, the assay yields very high Z′-factor values (>0.7) at a low percent phosphorylation. Both cleaved and uncleaved FRET-peptides contribute to the fluorescence signals and therefore to the Emission Ratio. The extent of phosphorylation of the FRET-peptide can be calculated from the Emission Ratio. The Emission Ratio will remain low if the FRET-peptide is phosphorylated (i.e., no kinase inhibition) and will be high if the FRET-peptide is non-phosphorylated (i.e., kinase inhibition).
# (§3) The Test Compounds are screened in 1% DMSO (final) in the well. For 10 point titrations, 3-fold serial dilutions are conducted from the starting concentration of the customer's choosing.
# (§4) All Peptide/Kinase Mixtures are diluted to a 2× working concentration in the appropriate Kinase Buffer (see section Kinase Specific Assay Conditions for a complete description).
# (§5) All ATP Solutions are diluted to a 4× working concentration in Kinase Buffer (50 mM HEPES pH 7.5, 0.01% BRIJ-35, 10 mM MgCl2, 1 mM EGTA). ATP Km apparent is previously determined using a Z″-LYTE assay.
# (§6) The Development Reagent is diluted in Development Buffer (see section Kinase-Specific Assay Conditions—Direct and Cascade for a complete description).
# (§7) Bar-coded Corning, low volume NBS, black 384-well plate (Corning Cat. #4514) • 1. 100 nL—100× Test Compound in 100% DMSO • 2. 2.4 μL—Kinase buffer • 3. 5 μL—2× Peptide/Kinase Mixture • 4. 2.5 μL—4×ATP Solution • 5. 30—second plate shake • 6. 60—minute Kinase Reaction incubation at room temperature • 7. 5 μL—Development Reagent Solution • 8. 30—second plate shake • 9. 60—minute Development Reaction incubation at room temperature • 10. Read on fluorescence plate reader and analyze the data Z′-LYTE Assay Controls
# (§8) SelectScreen Kinase Profiling Service uses XLfit from IDBS. The dose response curve is curve fit to model number 205 (sigmoidal dose-response model).
# (§9) The 2×PDGFRA (PDGFR alpha)/Tyr 04 mixture is prepared in 50 mM HEPES pH 7.5, 0.01% BRIJ-35, 10 mM MgCl2, 4 mM MnCl2, 1 mM EGTA, 2 mM DTT. The final 10 μL Kinase Reaction consists of 1.54-22.6 ng PDGFRA (PDGFR alpha) and 2 μM Tyr 04 in 50 mM HEPES pH 7.5, 0.01% BRIJ-35, 10 mM MgCl2, 2 mM MnCl2, 1 mM EGTA, 1 mM DTT. After the 1 hour Kinase Reaction incubation, 5 μL of a 1:64 dilution of Development Reagent B is added.
# [2] = target: FGFR1 (Homo sapiens, UniProt P11362); assay: Z'-LYTE SelectScreen biochemical kinase assay FGFR1
# Source text: as §1, §2, §3, §4, §5, §6, §7, §8
# as §9, with “2×FGFR1/Tyr” for “2×PDGFRA (PDGFR alpha)/Tyr”, “0.44-2.45” for “1.54-22.6”, “FGFR1” for “PDGFRA (PDGFR alpha)”
# [3] = target: PTK2 (FAK) (Homo sapiens, UniProt Q05397); assay: Z'-LYTE SelectScreen biochemical kinase assay PTK2 (FAK)
# Source text: as §1, §2, §3, §4, §5, §6, §7, §8
# (§10) The 2×PTK2 (FAK)/Tyr 07 mixture is prepared in 50 mM HEPES pH 7.5, 0.01% BRIJ-35, 10 mM MgCl2, 1 mM EGTA. The final 10 μL Kinase Reaction consists of 12.5-100 ng PTK2 (FAK) and 2 μM Tyr 07 in 50 mM HEPES pH 7.5, 0.01% BRIJ-35, 10 mM MgCl2, 1 mM EGTA. After the 1 hour Kinase Reaction incubation, 5 μL of a 1:16 dilution of Development Reagent B is added.
# [4] = target: KDR (VEGFR2) (Homo sapiens, UniProt P35968); assay: Z'-LYTE SelectScreen biochemical kinase assay KDR (VEGFR2)
# Source text: as §1, §2, §3, §4, §5, §6, §7, §8
# as §10, with “2×KDR (VEGFR2)/Tyr 01” for “2×PTK2 (FAK)/Tyr 07”, “1-30” for “12.5-100”, “KDR (VEGFR2)” for “PTK2 (FAK)”, “01” for “07”, “1:256” for “1:16”
# [5] = 10 μmolar compound concentration, ATP at Km app, read-out: PDGFRA (PDGFR alpha) inhibition
# [6] = read-out: % Inhibition mean PDGFRA (PDGFR alpha)
# [7] = 10 μmolar compound concentration, ATP at Km app, read-out: FGFR1 inhibition
# [8] = read-out: % Inhibition mean FGFR1
# [9] = 10 μmolar compound concentration, ATP at Km app, read-out: PTK2 (FAK) inhibition
# [10] = read-out: % Inhibition mean PTK2 (FAK)
# [11] = 10 μmolar compound concentration, ATP at Km app, read-out: KDR (VEGFR2) inhibition
# [12] = read-out: % Inhibition mean KDR (VEGFR2)
# Chain of FGFR1 (P11362 22-822): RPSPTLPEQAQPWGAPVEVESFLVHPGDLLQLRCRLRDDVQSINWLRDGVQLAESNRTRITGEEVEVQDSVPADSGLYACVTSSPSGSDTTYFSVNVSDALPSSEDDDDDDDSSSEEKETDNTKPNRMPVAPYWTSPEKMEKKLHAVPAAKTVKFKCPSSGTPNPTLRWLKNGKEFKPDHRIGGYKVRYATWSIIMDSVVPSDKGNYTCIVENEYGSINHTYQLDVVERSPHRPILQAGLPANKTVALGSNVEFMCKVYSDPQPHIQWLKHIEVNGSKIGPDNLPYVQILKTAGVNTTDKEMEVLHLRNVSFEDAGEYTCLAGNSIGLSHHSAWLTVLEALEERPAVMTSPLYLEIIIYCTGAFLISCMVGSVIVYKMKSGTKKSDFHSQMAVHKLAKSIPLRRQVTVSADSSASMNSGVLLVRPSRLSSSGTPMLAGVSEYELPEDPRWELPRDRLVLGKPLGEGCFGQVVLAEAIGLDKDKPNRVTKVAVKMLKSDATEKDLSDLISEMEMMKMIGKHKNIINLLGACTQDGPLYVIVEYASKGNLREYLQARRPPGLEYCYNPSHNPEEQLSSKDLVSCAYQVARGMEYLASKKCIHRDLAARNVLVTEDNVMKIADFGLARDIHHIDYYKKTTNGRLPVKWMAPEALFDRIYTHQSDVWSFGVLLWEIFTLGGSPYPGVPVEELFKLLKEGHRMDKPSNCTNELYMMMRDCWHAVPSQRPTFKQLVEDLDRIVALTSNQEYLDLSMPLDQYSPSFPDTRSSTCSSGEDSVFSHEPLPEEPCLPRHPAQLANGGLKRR
# Chain of PDGFRA (PDGFR alpha) (P16234 24-1089): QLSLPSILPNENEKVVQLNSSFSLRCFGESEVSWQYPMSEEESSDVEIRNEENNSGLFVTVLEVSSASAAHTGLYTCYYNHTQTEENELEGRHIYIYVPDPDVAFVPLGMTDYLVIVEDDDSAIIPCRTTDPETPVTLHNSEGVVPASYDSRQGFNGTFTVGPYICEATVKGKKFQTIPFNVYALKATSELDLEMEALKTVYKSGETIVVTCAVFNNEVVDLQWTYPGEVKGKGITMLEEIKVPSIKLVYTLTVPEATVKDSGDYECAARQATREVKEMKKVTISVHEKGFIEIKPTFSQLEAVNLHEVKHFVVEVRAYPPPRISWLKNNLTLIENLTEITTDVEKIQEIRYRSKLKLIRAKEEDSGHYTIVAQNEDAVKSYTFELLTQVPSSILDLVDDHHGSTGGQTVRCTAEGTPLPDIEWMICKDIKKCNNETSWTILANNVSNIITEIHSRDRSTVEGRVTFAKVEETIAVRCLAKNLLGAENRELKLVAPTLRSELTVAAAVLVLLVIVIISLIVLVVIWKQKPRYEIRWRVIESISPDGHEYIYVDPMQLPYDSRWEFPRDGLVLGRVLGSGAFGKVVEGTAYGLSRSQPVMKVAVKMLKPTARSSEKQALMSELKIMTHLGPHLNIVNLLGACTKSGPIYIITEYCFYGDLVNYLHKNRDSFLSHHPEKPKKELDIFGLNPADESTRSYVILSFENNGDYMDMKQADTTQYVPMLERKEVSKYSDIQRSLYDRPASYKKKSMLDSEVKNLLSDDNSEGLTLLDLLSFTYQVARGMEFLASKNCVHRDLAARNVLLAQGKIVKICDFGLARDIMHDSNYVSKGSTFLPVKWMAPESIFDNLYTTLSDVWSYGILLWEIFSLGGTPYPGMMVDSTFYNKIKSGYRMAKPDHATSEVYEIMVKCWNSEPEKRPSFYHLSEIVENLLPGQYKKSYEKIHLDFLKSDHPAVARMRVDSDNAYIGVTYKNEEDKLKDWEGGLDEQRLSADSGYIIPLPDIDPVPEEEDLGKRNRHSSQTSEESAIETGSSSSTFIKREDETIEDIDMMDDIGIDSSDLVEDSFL
# Chain of KDR (VEGFR2) (P35968 20-1356): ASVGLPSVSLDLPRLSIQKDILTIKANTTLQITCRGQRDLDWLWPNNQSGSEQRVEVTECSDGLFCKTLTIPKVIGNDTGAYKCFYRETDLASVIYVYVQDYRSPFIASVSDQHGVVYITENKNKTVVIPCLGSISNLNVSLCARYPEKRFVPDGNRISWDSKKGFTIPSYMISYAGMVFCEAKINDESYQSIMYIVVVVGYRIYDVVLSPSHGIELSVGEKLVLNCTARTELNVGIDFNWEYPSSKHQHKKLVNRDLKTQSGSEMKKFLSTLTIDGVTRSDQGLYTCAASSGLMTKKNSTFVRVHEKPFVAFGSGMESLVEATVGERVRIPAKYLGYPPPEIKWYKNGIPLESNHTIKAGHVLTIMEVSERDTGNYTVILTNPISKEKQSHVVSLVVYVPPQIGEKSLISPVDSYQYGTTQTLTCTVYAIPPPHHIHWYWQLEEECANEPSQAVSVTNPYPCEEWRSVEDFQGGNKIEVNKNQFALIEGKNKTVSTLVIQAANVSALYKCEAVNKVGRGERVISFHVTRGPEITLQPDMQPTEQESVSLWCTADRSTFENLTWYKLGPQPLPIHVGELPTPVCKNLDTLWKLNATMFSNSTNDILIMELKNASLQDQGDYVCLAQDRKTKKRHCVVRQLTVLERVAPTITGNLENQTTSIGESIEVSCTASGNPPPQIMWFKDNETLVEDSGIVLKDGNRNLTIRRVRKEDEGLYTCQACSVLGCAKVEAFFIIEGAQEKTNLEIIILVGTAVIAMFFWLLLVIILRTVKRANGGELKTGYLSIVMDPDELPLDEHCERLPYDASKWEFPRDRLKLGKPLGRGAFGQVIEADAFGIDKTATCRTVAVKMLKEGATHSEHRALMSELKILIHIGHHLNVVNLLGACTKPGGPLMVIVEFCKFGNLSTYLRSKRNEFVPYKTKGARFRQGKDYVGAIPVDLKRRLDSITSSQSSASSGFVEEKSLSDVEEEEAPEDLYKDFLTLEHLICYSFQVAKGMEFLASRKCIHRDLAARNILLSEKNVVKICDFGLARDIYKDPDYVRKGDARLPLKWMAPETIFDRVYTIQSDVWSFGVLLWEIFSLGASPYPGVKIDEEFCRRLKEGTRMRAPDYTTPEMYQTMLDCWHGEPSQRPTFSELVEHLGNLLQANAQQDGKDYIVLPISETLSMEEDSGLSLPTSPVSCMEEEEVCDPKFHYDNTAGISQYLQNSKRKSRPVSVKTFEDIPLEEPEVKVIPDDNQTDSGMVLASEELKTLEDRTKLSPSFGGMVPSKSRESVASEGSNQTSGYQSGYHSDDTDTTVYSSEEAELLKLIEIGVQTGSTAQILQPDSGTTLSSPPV
# Chain of PTK2 (FAK) (Q05397 whole entry): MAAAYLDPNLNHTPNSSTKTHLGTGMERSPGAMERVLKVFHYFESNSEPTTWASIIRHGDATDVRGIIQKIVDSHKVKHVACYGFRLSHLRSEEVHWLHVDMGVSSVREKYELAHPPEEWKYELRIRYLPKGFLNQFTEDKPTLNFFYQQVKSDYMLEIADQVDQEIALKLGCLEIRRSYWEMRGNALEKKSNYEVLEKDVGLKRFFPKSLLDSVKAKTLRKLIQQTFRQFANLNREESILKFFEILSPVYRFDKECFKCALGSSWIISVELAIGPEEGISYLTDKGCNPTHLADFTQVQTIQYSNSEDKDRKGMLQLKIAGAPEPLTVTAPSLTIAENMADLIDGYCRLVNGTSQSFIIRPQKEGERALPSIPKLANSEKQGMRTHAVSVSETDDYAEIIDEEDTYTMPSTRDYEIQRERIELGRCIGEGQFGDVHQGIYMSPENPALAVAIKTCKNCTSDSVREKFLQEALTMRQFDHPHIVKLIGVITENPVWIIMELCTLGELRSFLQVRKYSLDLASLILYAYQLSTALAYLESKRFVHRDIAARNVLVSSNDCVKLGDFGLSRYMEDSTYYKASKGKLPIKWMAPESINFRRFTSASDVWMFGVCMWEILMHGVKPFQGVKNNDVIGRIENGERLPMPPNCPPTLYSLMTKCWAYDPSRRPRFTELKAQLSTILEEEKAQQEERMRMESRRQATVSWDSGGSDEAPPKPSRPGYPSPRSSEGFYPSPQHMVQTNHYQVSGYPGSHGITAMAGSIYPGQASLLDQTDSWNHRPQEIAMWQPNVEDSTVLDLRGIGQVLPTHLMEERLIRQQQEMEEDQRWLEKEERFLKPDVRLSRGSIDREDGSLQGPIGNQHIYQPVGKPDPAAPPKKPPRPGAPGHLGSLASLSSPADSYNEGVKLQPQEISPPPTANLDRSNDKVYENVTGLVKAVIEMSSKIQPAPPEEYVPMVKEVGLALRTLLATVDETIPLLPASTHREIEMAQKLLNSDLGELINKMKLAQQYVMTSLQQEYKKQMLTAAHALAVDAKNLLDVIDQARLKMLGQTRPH
"inhibition at 10 µM [1, 5]","inhibition at 10 µM [1, 6]","inhibition at 10 µM [2, 7]","inhibition at 10 µM [2, 8]","inhibition at 10 µM [3, 9]","inhibition at 10 µM [3, 10]","inhibition at 10 µM [4, 11]","inhibition at 10 µM [4, 12]",Compound
< 40%,18%,< 40%,16%,< 40%,28%,< 40%,10%,"CCn1ncc2c1CC[C@@H](Nc1nc3c(-c4ccc(F)cc4C)cccn3n1)C2 [Example R-42, (R)-(1-Ethyl-4,5,6,7-tetrahydro-1H-indazol-5-yl)-[8-(4-fluoro-2-methyl-phenyl)-[1,2,4]triazolo[1,5-a]pyridine-2-yl]-amine]"
< 40%,30%,< 40%,-3%,< 40%,14%,< 40%,5%,"CCc1nn(C)c2c1CCC(Nc1nc3c(-c4ccc(F)cc4C)cccn3n1)C2 (stereo not shown) [Example 54, (3-Ethyl-1-methyl-4,5,6,7-tetrahydro-1H-indazol-6-yl)-[8-(4-fluoro-2-methyl-phenyl)-[1,2,4]triazolo[1,5-a]pyridine-2-yl]-amine]"
< 40%,5%,< 40%,20%,< 40%,15%,< 40%,3%,"Cc1cc(F)ccc1-c1cccn2nc(NC3CCc4c(cnn4C(C)C)C3)nc12 (stereo not shown) [Example 44, [8-(4-fluoro-2-methyl-phenyl)-[1,2,4]triazolo[1,5-a]pyridine-2-yl]-(1-isopropyl-4,5,6,7-tetrahydro-1H-indazol-5-yl)-amine]"
< 40%,30%,< 40%,9%,< 40%,20%,< 40%,-10%,"Cc1cc(F)ccc1-c1cccn2nc(NC3CCc4c(cnn4CC(C)C)C3)nc12 (stereo not shown) [Example 45, [8-(4-fluoro-2-methyl-phenyl)-[1,2,4]triazolo[1,5-a]pyridine-2-yl]-(1-isobutyl-4,5,6,7-tetrahydro-1H-indazol-5-yl)-amine]"

# Continued, compound first:
Compound,"inhibition at 10 µM [1, 5]","inhibition at 10 µM [1, 6]","inhibition at 10 µM [2, 7]","inhibition at 10 µM [2, 8]","inhibition at 10 µM [3, 9]","inhibition at 10 µM [3, 10]","inhibition at 10 µM [4, 11]","inhibition at 10 µM [4, 12]"
"CCn1ncc2c1CCC(Nc1nc3c(-c4cncc(Cl)c4)cccn3n1)C2 (stereo not shown) [Example 73, [8-(5-Chloro-pyridin-3-yl)-[1,2,4]triazolo[1,5-a]pyridine-2-yl]-(1-ethyl-4,5,6,7-tetrahydro-1H-indazol-5-yl)-amine]",< 40%,23%,< 40%,32%,< 40%,25%,< 40%,8%
"CCn1ncc2c1CCC(Nc1nc3c(-c4ccc(C)nc4)cccn3n1)C2 (stereo not shown) [Example 67, (1-Ethyl-4,5,6,7-tetrahydro-1H-indazol-5-yl)-[8-(6-methyl-pyridin-3-yl)-[1,2,4]triazolo[1,5-a]pyridine-2-yl]-amine]",< 40%,20%,< 40%,21%,< 40%,27%,< 40%,15%
"CCn1ncc2c1CCC(Nc1nc3c(-c4ccc(F)cc4)cccn3n1)C2 (stereo not shown) [Example 55, (1-Ethyl-4,5,6,7-tetrahydro-1H-indazol-5-yl)-[8-(4-fluoro-phenyl)-[1,2,4]triazolo[1,5-a]pyridine-2-yl]-amine]",< 40%,16%,< 40%,12%,< 40%,8%,< 40%,12%
"CCn1ncc2c1CCC(Nc1nc3c(-c4cccnc4OC)cccn3n1)C2 (stereo not shown) [Example 69, (1-Ethyl-4,5,6,7-tetrahydro-1H-indazol-5-yl)-[8-(2-methoxy-pyridin-3-yl)-[1,2,4]triazolo[1,5-a]pyridine-2-yl]-amine]",< 40%,17%,< 40%,20%,< 40%,24%,< 40%,8%
"CCn1ncc2c1CCC(Nc1nc3c(-c4cncc(OC)c4)cccn3n1)C2 (stereo not shown) [Example 70, (1-Ethyl-4,5,6,7-tetrahydro-1H-indazol-5-yl)-[8-(5-methoxy-pyridin-3-yl)-[1,2,4]triazolo[1,5-a]pyridine-2-yl]-amine]",< 40%,17%,< 40%,18%,< 40%,14%,< 40%,12%
"CCn1ncc2c1CCC(Nc1nc3c(-c4cccnc4)cccn3n1)C2 (stereo not shown) [Example 63, (1-Ethyl-4,5,6,7-tetrahydro-1H-indazol-5-yl)-(8-pyridin-3-yl-[1,2,4]triazolo[1,5-a]pyridine-2-yl)-amine]",< 40%,20%,< 40%,18%,< 40%,13%,< 40%,8%
"CCn1ncc2c1CCC(Nc1nc3c(-c4cnccc4OC)cccn3n1)C2 (stereo not shown) [Example 68, (1-Ethyl-4,5,6,7-tetrahydro-1H-indazol-5-yl)-[8-(4-methoxy-pyridin-3-yl)-[1,2,4]triazolo[1,5-a]pyridine-2-yl]-amine]",< 40%,23%,< 40%,23%,< 40%,28%,< 40%,18%
